Test: Evaluation of solution appearance
Type: physicochemical
Details: solution adjusted to the five-kind MIC, 4 mL tube, allowed to stand still, visually observed
Procedure: […] of each of the test microbial liquids was dispensed onto a microplate, and further, […] of each of antibacterial and antifungal solutions, in which the antibacterial and antifungal compositions prepared in Examples 1 and 2 and Comparative Examples 1 to 11 were adjusted to various concentrations with a culture medium, was added to the test microbial liquid, followed by stirring, to obtain a mixed solution. In this case, the pH of each of the antibacterial and antifungal solutions was from 6.89 to 7.24. Next, in each of the mixed solutions, culture was performed as follows. The bacterium mixed solution was cultured in a constant-temperature reservoir at 37° C. for 24 hours. The yeast mixed solution was cultured in the constant-temperature reservoir at 25° C. for 3 days. The mold mixed solution was cultured in the constant-temperature reservoir at 25° C. for 1 week. […] In addition, the appearance of the antibacterial and antifungal solution was evaluated as follows. […] The appearance of the solution was visually observed and evaluated in accordance with the following criteria. […]

Compound	Evaluation of solution appearance
OCc1ccccc1 [Comparative Example 6, benzyl alcohol]	◯
O=C([O-])c1ccccc1.[Na+] [compound 7, sodium benzoate]	◯
